{
  "source": "paper PMC7614683",
  "about": "“A small molecule PI3Kα activator for cardioprotection and neuroregeneration” (Nature, 2023)",
  "experiment_in_all_cases": "SelectScreen LanthaScreen Binding",
  "conditions_in_all_cases": "1000 nM",
  "key": {"[1]": {"biological_target": "AAK1 (Homo sapiens, UniProt Q2M2I8)", "sequence (Q2M2I8 whole entry)": "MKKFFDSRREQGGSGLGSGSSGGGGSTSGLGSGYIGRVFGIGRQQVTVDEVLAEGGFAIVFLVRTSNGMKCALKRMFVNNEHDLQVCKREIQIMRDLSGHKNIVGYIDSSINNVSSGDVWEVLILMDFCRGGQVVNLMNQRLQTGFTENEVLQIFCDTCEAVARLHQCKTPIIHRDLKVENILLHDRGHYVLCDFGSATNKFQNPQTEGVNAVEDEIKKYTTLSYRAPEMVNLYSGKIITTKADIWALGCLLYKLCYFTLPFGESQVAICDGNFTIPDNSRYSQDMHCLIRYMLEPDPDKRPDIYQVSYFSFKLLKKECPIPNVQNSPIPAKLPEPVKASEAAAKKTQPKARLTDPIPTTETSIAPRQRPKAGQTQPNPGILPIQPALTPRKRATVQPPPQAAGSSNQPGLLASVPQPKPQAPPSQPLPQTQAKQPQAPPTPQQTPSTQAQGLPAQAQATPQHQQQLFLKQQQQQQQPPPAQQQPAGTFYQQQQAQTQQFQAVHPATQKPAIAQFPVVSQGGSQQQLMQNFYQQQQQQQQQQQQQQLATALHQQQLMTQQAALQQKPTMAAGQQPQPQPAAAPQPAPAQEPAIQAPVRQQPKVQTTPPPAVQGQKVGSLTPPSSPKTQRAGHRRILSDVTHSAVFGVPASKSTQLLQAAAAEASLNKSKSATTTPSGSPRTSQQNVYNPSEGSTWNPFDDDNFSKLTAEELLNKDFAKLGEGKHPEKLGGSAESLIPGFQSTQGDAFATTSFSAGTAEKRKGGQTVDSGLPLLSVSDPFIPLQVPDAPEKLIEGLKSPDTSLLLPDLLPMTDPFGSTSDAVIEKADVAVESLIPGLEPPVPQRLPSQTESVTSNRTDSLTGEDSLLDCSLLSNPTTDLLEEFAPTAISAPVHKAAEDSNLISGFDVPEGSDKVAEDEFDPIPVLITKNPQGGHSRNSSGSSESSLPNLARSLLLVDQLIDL", "description": "(§1) 133 protein kinases and 7 lipid kinases were counterscreened, with 1938 used at 1 μM, using the Adapta, Lantha and Z-LYTE assays (SelectScreen Kinase Profiling Service; Thermofisher – experimental details of these assays can be found here: https://www.thermofisher.com/uk/en/home/industrial/pharma-biopharma/drug-discovery-development/target-and-lead-identification-and-validation/kinasebiology/kinase-activity-assays.html. The tree represention in KinMap[59] generated courtesy of Cell Signaling Technology, Inc. (www.cellsignal.com). mTORC1 (mTOR/RAPTOR/LST8) protein complex and ATM kinase and substrates were produced as previously described[57],[60]. Screening of 1938 was conducted using SuperSep Phos-Tag 50 μmol/l 100 x 100 x 6.6 mm 17-well (192-18001/199-18011) gels. For ATM assays, 100 nM ATM was incubated for 30 min at 30°C with 5 μM GST-p53 and 1 mM ATP, in the absence or presence of 200 μM 1938 in ATM Kinase Buffer (50 mM HEPES pH 7.5, 100 mM NaCl, 10% glycerol, 2 mM […], 5 mM MgCl2). As a positive control for ATM activation, the same reaction was carried out with 100 nM ATM/5 μM GST-p53/1 mM ATP in the presence of 100 nM Mre11-Rad50-Nbs1 (MRN) complex, a known activator of ATM[61]. For mTORC1 assays, 50 nM mTORC1 complex (mTOR/LST8/RAPTOR) was incubated for 3 h at 30°C with 15 μM 4E-BP1, 10 mM MgCl2 and 250 μM ATP, in the absence or presence of 200 μM 1938. As a ‘positive’ control, a higher concentration (150 nM) of mTORC1 complex (mTOR/LST8/RAPTOR) was incubated for 3 h at 30°C with 15 μM 4E-BP1, 10 mM MgCl2 and 250 μM ATP. Kinase reactions were quenched by addition of SDS-PAGE Loading Buffer (as per manufacturer’s instructions) and freezing at -20°C before being run on the Phos-tag gels at 150 V for 90 min. Gels were then stained using InstantBlue™ Coomassie, and quantified using BioRad Image Lab Software. Kinase assays were carried out in triplicate."}, "[2]": {"biological_target": "CDK8/cyclin C (Homo sapiens, UniProt P49336)", "sequence (P49336 whole entry)": "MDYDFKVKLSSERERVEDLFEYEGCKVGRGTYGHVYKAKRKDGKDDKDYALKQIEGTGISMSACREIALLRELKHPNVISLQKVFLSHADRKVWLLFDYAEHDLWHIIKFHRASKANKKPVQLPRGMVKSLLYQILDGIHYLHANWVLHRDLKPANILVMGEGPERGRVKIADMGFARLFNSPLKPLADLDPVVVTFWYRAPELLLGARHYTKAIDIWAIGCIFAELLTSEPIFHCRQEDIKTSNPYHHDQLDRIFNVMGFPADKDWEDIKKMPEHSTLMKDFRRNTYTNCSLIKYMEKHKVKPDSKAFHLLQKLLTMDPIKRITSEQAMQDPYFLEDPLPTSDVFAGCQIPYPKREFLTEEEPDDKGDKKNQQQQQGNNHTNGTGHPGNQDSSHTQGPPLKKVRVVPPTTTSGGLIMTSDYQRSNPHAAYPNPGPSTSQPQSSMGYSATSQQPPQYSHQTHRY", "sequence (P24863 whole entry partner)": "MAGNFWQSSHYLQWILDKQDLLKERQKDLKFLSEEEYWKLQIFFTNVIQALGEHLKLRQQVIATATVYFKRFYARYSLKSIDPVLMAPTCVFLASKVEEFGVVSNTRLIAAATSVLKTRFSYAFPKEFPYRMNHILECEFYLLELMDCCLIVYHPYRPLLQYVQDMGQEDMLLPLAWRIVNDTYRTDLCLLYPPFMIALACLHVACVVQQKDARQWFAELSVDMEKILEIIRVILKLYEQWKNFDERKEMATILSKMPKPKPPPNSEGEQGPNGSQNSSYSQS", "description": "as §1"}, "[3]": {"biological_target": "MAP4K1 (HPK1) (Homo sapiens, UniProt Q92918)", "sequence (Q92918 whole entry)": "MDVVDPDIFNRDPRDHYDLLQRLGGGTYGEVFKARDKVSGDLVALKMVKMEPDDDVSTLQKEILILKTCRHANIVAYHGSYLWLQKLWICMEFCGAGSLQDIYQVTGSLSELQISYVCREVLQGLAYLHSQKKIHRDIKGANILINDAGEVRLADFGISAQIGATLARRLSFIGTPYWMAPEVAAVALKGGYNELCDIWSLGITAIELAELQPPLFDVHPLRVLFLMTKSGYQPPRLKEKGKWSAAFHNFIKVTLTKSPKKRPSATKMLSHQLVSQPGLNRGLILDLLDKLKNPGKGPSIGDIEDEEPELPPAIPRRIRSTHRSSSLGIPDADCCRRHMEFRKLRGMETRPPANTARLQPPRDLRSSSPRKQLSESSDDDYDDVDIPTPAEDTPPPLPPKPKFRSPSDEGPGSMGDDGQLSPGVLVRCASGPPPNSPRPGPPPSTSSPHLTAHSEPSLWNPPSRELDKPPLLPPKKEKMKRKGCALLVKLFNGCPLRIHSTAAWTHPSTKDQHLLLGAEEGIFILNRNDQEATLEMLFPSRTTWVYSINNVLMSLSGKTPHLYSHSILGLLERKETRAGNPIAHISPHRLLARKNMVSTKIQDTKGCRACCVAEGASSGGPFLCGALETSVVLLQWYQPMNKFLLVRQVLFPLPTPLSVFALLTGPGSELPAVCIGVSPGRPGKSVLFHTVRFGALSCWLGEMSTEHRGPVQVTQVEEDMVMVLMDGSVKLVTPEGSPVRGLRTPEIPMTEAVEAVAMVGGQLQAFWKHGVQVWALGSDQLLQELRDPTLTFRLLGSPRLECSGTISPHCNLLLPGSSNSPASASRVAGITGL", "description": "as §1"}, "[4]": {"biological_target": "TNIK (Homo sapiens, UniProt Q9UKE5)", "sequence (Q9UKE5 whole entry)": "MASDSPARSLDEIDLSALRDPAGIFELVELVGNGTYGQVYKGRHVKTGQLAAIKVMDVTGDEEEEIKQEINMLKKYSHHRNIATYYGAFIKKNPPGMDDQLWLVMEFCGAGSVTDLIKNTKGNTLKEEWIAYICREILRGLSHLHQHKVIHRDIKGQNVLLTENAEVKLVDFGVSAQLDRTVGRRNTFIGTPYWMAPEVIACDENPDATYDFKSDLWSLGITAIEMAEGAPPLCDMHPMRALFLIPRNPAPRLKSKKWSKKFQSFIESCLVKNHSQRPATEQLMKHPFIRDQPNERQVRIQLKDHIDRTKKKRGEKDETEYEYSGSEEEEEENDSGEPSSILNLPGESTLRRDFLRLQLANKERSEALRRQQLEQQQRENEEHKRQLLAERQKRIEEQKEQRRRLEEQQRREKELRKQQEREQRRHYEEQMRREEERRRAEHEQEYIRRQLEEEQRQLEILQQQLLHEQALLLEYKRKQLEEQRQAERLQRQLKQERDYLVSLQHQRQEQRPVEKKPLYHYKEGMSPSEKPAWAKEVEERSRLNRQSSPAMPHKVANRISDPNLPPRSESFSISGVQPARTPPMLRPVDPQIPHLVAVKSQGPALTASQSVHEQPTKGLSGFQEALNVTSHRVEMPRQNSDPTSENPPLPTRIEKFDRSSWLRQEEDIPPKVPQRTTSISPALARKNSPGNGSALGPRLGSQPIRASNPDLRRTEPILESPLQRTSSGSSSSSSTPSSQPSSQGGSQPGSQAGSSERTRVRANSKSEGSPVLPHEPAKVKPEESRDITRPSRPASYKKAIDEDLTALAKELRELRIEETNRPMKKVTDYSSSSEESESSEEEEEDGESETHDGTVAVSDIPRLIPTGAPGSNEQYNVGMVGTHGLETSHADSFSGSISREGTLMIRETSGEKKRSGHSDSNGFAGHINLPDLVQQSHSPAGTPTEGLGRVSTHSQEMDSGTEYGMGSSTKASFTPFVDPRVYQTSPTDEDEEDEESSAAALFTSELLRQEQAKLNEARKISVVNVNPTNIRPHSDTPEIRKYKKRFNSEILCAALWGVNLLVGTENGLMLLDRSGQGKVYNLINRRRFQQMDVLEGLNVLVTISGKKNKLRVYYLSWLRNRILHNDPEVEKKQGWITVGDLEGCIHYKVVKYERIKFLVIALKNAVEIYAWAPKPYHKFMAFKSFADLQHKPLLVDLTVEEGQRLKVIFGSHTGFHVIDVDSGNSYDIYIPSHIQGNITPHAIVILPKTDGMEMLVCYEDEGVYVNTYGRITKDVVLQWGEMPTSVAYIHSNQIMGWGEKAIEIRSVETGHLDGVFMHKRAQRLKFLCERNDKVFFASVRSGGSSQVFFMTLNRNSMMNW", "description": "as §1"}, "[5]": {"biological_target": "T1, DDR2 (Homo sapiens, UniProt Q16832)", "T1 sequence (Q16832 22-855)": "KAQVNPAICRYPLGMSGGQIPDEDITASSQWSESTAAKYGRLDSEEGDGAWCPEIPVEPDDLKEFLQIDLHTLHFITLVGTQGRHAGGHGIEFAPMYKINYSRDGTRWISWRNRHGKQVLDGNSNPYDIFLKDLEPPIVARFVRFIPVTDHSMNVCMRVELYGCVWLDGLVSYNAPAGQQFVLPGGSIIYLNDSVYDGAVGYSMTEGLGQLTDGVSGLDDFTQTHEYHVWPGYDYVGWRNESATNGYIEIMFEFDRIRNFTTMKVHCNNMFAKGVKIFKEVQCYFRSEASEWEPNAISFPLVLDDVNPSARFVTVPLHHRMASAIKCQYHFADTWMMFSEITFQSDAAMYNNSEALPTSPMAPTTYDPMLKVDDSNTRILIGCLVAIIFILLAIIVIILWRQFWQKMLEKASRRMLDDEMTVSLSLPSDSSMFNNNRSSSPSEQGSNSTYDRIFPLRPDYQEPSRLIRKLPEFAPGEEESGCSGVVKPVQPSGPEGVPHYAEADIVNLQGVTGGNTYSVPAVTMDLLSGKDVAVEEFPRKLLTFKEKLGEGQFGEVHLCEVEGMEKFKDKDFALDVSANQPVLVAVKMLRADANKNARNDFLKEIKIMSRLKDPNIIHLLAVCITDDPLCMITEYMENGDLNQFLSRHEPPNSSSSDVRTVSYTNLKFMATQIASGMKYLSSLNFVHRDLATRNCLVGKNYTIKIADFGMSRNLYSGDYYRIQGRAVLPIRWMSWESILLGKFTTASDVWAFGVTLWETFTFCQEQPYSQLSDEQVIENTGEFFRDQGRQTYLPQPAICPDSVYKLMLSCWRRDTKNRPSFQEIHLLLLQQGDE", "description": "as §1"}},
  "data": [
    {"molecule": "CCN1CCN(c2ccc(Nc3cc(Nc4cccc5c4N(C(C)=O)CC5)ccn3)cc2)CC1", "note": "[Compound 1938]", "values": [
      {"measurement": "% Displacement Point 1", "setting": "[1]", "result": 26, "unit": "%"},
      {"measurement": "% Displacement Point 2", "setting": "[1]", "result": 25, "unit": "%"},
      {"measurement": "% Displacement mean", "setting": "[1]", "result": 25, "unit": "%"},
      {"measurement": "% Displacement Point 1", "setting": "[2]", "result": -0.599, "unit": "%"},
      {"measurement": "% Displacement Point 2", "setting": "[2]", "result": 0.85, "unit": "%"},
      {"measurement": "% Displacement mean", "setting": "[2]", "result": 0.126, "unit": "%"},
      {"measurement": "% Displacement Point 1", "setting": "[3]", "result": -3.25, "unit": "%"},
      {"measurement": "% Displacement Point 2", "setting": "[3]", "result": 6.64, "unit": "%"},
      {"measurement": "% Displacement mean", "setting": "[3]", "result": 1.7, "unit": "%"},
      {"measurement": "% Displacement Point 1", "setting": "[4]", "result": 23, "unit": "%"},
      {"measurement": "% Displacement Point 2", "setting": "[4]", "result": 25, "unit": "%"},
      {"measurement": "% Displacement mean", "setting": "[4]", "result": 24, "unit": "%"},
      {"measurement": "% Displacement Point 1", "setting": "[5]", "result": -6.46, "unit": "%"},
      {"measurement": "% Displacement Point 2", "setting": "[5]", "result": 0.345, "unit": "%"},
      {"measurement": "% Displacement mean", "setting": "[5]", "result": -3, "unit": "%"}
    ]}
  ]
}
